Measurements: publication PMC5534107, “Sensitization of ASIC3 by proteinase-activated receptor 2 signaling contributes to acidosis-induced nociception” (Journal of Neuroinflammation, 2017)

Experiments:
[1] = test system: ASIC3 currents in CHO cells co-expressing ASIC3 and PAR2; assay: Whole-cell patch clamp of proton-gated currents (I pH 6.6) in CHO cells co-expressing ASIC3 and PAR2; type: cell-based, Chinese hamster
Method: (§1) ASIC3, ASIC1a, ASIC1b, ASIC2b, and PAR2 complementary DNAs (cDNAs) were used for heterologous expression in CHO cells as described previously (Wang et al., 2013). In brief, CHO cells were cultured at 37 °C in a humidified atmosphere of 5% CO2 and […] and passaged twice a week. Transient transfection of CHO cells was performed using HilyMax liposome transfection reagent (Dojindo Laboratories). CHO cells were maintained in F-12 Nutrient Mixture (added 1.176 g of NaHCO3/L medium) supplemented with 10% fetal bovine serum and 1% gluta-MAXTM-1 (100×; Invitrogen). When ASIC3 and PAR2 cDNAs were co-transfected, the ratio was kept at 1:1. All plasmids used contained, in addition to the desired ASIC3 cDNA, the coding sequence for enhanced green fluorescent protein to aid identification of transfected cells. Electrophysiological measurements were performed 24–48 h after transfection.
(§2) Whole-cell patch clamp and voltage clamp recordings were carried out at room temperature (22–25 °C) using a MultiClamp-700B amplifier and Digidata-1440A A/D converter (Axon Instruments, CA, USA). Recording pipettes were pulled using a Sutter P-97 puller (Sutter Instruments, CA, USA). The micropipettes were filled with internal solution containing (mM) KCl 140, MgCl2 2.5, HEPES 10, EGTA 11, and ATP 5; its pH was adjusted to 7.2 with KOH, and osmolarity was adjusted to 310 mOsm/L with sucrose. Cells were bathed in an external solution containing (mM) NaCl 150, KCl 5, CaCl2 2.5, MgCl2 2, HEPES 10, D-glucose 10; its osmolarity was adjusted to 330 mOsm/L with sucrose and its pH to 7.4. The resistance of the recording pipette was in the range of 3–6 MΩ. A small patch of membrane underneath the tip of the pipette was aspirated to form a giga seal, and then, a negative pressure was applied to rupture it, thus establishing a whole-cell configuration. The series resistance was compensated for by 70–80%. The adjustment of capacitance compensation was also done before recording the membrane currents. The membrane voltage was maintained at −60 mV in all voltage clamp experiments unless otherwise specified. Current clamp recordings were obtained by switching to current clamp mode after a stable whole-cell configuration was formed in voltage clamp mode. Only cells with a stable resting membrane potential (more negative than −50 mV) were used in the study. Signals were sampled at 10 to 50 kHz and filtered at 2 to 10 kHz, and the data were stored in compatible PC computer for off-online analysis using the pCLAMP 10 acquisition software (Axon Instruments, CA, USA).
Drugs purchased from Sigma and used in the experiments include hydrochloric acid, 2-furoyl-LIGRLO-NH2 (a PAR2-activating peptide (PAR2-AP)), trypsin, FSLLRY-NH2, APETx2, and capsazepine. Different pH values were configured with hydrochloric acid and external solution. All drugs were dissolved daily in the external solution just before use and held in a linear array of fused silica tubes (o.d./i.d. = 500 μm/200 μm) connected to a series of independent reservoirs. The application pipette tips were positioned ∼30 μm away from the recorded neurons. The application of each drug was driven by gravity and controlled by the corresponding valve, and rapid solution exchange could be achieved within about 100 ms by shifting the tubes horizontally with a PC-controlled micromanipulator. Cells were constantly bathed in normal external solution flowing from one tube connected to a larger reservoir between drug applications. In some experiments where GDP-β-S (Sigma), U-73122(Sigma), and GF109203X (RBI) were applied for intracellular dialysis through recording patch pipettes, they were dissolved in the internal solution before use. To ensure that the cell interior was perfused with the dialysis drug, there was at least a 30-min interval between the establishment of whole-cell access and the current measurement. […]

[2] = test system: rat DRG neurons; assay: Current clamp of acidosis-evoked action potentials (spikes) in rat DRG neurons; type: cell-based; settings: APETx2 2 μM; pH 6.6 for 5 s; capsazepine 10 μM
From the text: The experimental protocol was approved by the animal research ethics committee of Hubei University of Science and Technology (No. 2016–67). All procedures conformed to international guidelines on the ethical use of animals, and every effort was made to minimize the number of animals used and their sufferings. Five- to 6-week-old Sprague–Dawley male rats were anesthetized with 7% chloral hydrate and then decapitated. The DRGs were taken out and transferred immediately into Dulbecco’s modified Eagle’s medium (DMEM, Sigma) at pH 7.4. After the removal of the surrounding connective tissues, the DRGs were minced with fine spring scissors and the ganglion fragments were placed in a flask containing 5 ml of DMEM in which trypsin (type II-S, Sigma) 0.5 mg/ml, collagenase (type I-A, Sigma) 1.0 mg/ml, and DNase (type IV, Sigma) 0.1 mg/ml had been dissolved and incubated at 35 °C in a shaking water bath for 25–30 min. Soybean trypsin inhibitor (type II-S, Sigma) 1.25 mg/ml was then added to stop trypsin digestion. The incubating solution was then replaced by external solution. […]
(§3) Drugs purchased from Sigma and used in the experiments include hydrochloric acid, 2-furoyl-LIGRLO-NH2 (a PAR2-activating peptide (PAR2-AP)), trypsin, FSLLRY-NH2, APETx2, and capsazepine. […] The application pipette tips were positioned ∼30 μm away from the recorded neurons. […]

[3] = test system: ASIC3-like currents in rat DRG neurons; assay: Voltage clamp of proton-evoked ASIC3-like currents in acutely isolated rat DRG neurons; type: cell-based
From the text: The experimental protocol was approved by the animal research ethics committee of Hubei University of Science and Technology (No. 2016–67). All procedures conformed to international guidelines on the ethical use of animals, and every effort was made to minimize the number of animals used and their sufferings. Five- to 6-week-old Sprague–Dawley male rats were anesthetized with 7% chloral hydrate and then decapitated. The DRGs were taken out and transferred immediately into Dulbecco’s modified Eagle’s medium (DMEM, Sigma) at pH 7.4. After the removal of the surrounding connective tissues, the DRGs were minced with fine spring scissors and the ganglion fragments were placed in a flask containing 5 ml of DMEM in which trypsin (type II-S, Sigma) 0.5 mg/ml, collagenase (type I-A, Sigma) 1.0 mg/ml, and DNase (type IV, Sigma) 0.1 mg/ml had been dissolved and incubated at 35 °C in a shaking water bath for 25–30 min. Soybean trypsin inhibitor (type II-S, Sigma) 1.25 mg/ml was then added to stop trypsin digestion. The incubating solution was then replaced by external solution. Dissociated neurons were placed into a 35-mm Petri dish and kept for at least 1 h in normal external solution before the start of electrophysiological experiments. After plating of the DRG neurons, the neurons were used for experiments within 24 h. The neurons selected for electrophysiological experiment were 15–35 μm in diameter.
as §2, with “The membrane voltage was maintained at −60 mV in all voltage clamp experiments unless otherwise specified. Current clamp recordings were obtained by switching to current clamp mode after a stable whole-cell configuration was formed in voltage clamp mode. Only cells with a stable resting membrane potential (more negative than −50 mV) were used in the study. Signals were sampled at 10 to 50 kHz and filtered at 2 to 10 kHz, and the data were stored in compatible PC computer for off-online analysis using the pCLAMP 10 acquisition software (Axon Instruments, CA, USA).” left out
as §3

[4] = test system: rats; assay: Nociceptive behavior (flinches) induced by intraplantar acetic acid in rats; type: in vivo, rat; settings: n = 10
Method: Rats were placed in a 30 × 30 × 30 cm Plexiglas chamber and allowed to habituate for at least 30 min before nociceptive behavior experiments. A blind experiment was carried out. Separate groups of rats were coded and pretreated with 20 μl capsazepine (100 μM) together with vehicle and different dosages of PAR2-AP, FSLLRY-NH2, or APETx2 in the ipsilateral hind paw before injection of acetic acid. […] And nociceptive behavior (that is, number of flinches) was counted over a 5-min period starting immediately after the injection.
We finally ascertain whether PAR2-AP facilitates pain-related behaviors through interacting with ASIC3 in vivo. Acetic acid (0.6%) was injected into the right hind paws of rats and measured the number of flinches that the animals spent licking and/or lifting the injected paw. Intraplantar injection of acetic acid elicits an intense flinch/shaking response which mainly occurred during 0–5 min after injection of acetic acid. […] However, the low dose (1 μg) of PAR2-AP had no effect on the acidosis-induced nocifensive behaviors (Bonferroni’s post hoc test, P > 0.1, n = 10). In addition, the exacerbating effect of 10 μg PAR2-AP on acidosis-induced nocifensive behaviors was blocked by co-administration of 20 μg FSLLRY-NH2, a selective PAR2 antagonist (Bonferroni’s post hoc test, P < 0.01, compared with 10 μg PAR2-AP alone, n = 10; Fig. 6a).

[5] = test system: ASIC3 currents in CHO cells expressing alone ASIC3, but not expressing PAR2; assay: Whole-cell patch clamp, CHO cells expressing ASIC3 alone (no PAR2); type: cell-based, Chinese hamster; settings: 10^−5 M; P > 0.1; n = 10
Method: as §1
Whole-cell patch clamp and voltage clamp recordings were carried out at room temperature (22–25 °C) using a MultiClamp-700B amplifier and Digidata-1440A A/D converter (Axon Instruments, CA, USA). […]
as §3

CN(C)CCCn1cc(C2=C(c3c[nH]c4ccccc34)C(=O)NC2=O)c2ccccc21 [GF109203X]
PAR2-AP-induced increase of I pH 6.6 with GF109203X in the pipette solution ([1]; GF109203X 2 μM intracellular dialysis, PAR2-AP 10^−5 M for 1 min, n = 10): 3.2 ± 6.0%

O=S(=O)(NCCNC/C=C/c1ccc(Br)cc1)c1cccc2cnccc12 [H-89]
PAR2-AP-induced increase of I pH 6.6 with H-89 in the pipette solution ([1]; H-89 10 μM intracellular dialysis, PAR2-AP 10^−5 M for 1 min, n = 10): 15.3 ± 5.8%

COc1ccc2c(c1)CC[C@@H]1[C@@H]2CC[C@]2(C)[C@@H](NCCCCCCN3C(=O)C=CC3=O)CC[C@@H]12 [U-73122]
PAR2-AP-induced increase of I pH 6.6 with U-73122 in the pipette solution ([1]; U-73122 10 μM intracellular dialysis, PAR2-AP 10^−5 M for 1 min, n = 10): 6.9 ± 2.8%

APETx2
effect on acidosis-evoked spikes [2]: completely blocked | effect on proton-induced ASIC current (I pH 6.6) in DRG neurons ([3]; APETx2 2 μM, eight DRG neurons, capsazepine 10 μM): completely blocked | effect on acetic acid-induced nociceptive response ([4]; APETx2 20 μM, 20 μl intraplantar, P < 0.01): potently blocked | effect on increased pain behavior induced by 10 μg PAR2-AP ([4]; APETx2 20 μM, 20 μl intraplantar, P < 0.01 vs PAR2-AP): potently inhibited | effect on peak ASIC current (I pH 6.6) ([1]; APETx2 500 nM): inhibited the peak ASIC current | effect on sustained plateau current (I pH 6.6) ([1]; APETx2 500 nM): without affecting the sustained plateau

FSLLRY-NH2
effect of FSLLRY-NH2 on trypsin potentiation of ASIC currents in DRG neurons ([3]; FSLLRY-NH2 10^−5 M, trypsin 10^−5 M): inhibited | increase of peak amplitude of I pH 6.6 in DRG neurons when PAR2-AP co-treated with FSLLRY-NH2 ([3]; PAR2-AP 10^−5 M + FSLLRY-NH2 10^−5 M, capsazepine 10 μM, n = 9, P < 0.01 vs PAR2-AP alone): 9.3 ± 44% | effect on exacerbation of acidosis-induced nocifensive behaviors by 10 μg PAR2-AP ([4]; FSLLRY-NH2 20 μg co-administered, P < 0.01 vs 10 μg PAR2-AP alone): blocked | change of peak amplitude of I pH 6.6 after pretreatment with FSLLRY-NH2 alone ([1]; 10^−5 M): ≤ 5% | PAR2-AP-induced increase of ASIC3 currents in cells pretreated with FSLLRY-NH2 ([1]; PAR2-AP 10^−5 M + FSLLRY-NH2 10^−5 M, n = 10, P < 0.01 vs PAR2-AP alone): 7.3 ± 7.1% | trypsin-induced increase of ASIC3 currents in cells pretreated with FSLLRY-NH2 ([1]; trypsin 10^−5 M + FSLLRY-NH2 10^−5 M, n = 10): 8.4 ± 6.2%

trypsin: protease, possible physiological ligand of PAR2; cleaves and activates PAR2
effect on I pH 6.6 in ASIC3-transfected CHO cells without PAR2 [5]: Neither PAR2-AP nor trypsin had an effect | increase of peak amplitude of I pH 6.6 after pretreatment with agonist alone ([1]; 10^−5 M for 1 min, n = 10): 48.7 ± 8.3%
